Data reported in US20230210735A1, “PREVENTION, REDUCTION, OR AMELIORATION OF OLD PERSON SMELL” (Firmenich SA, priority 2020, published 2023).

Assays:
[1] = POV reduction in model citrus perfume (mixed citrus oil in 90/10 v/v ethanol/water); conditions: for % POV Reduction: model citrus perfume, vs untreated sample
[2] = POV by titration in formulated ranch salad dressing
Text: Blank Samples: In all of the experiments below, an Untreated Oil (Blank) sample was maintained. The Blank was always packaged, stored, handled, and sampled in exactly the same manner as the Treated Sample, excepting the addition of the 2-oxoacid salt. In this way, the effect of the atmospheric oxygen in the headspace volume would be similar. For example, the ratio of the headspace volume to the volume of oil, and the area of contact between the headspace and the oil surface, would be the same for Treated and Untreated samples.
Into 30 mL glass vial was placed 15 g of a commercial salad dressing that had been stored in the lab at room temperature for an unknown but extended period after opening. To this vial, 0.4002 g of PhPA-DiMeC 10A was added and mixed well. The mixture was allowed to stand on the bench top under ambient laboratory light at room temperature. Periodically, measurements were recorded of the POV by titration, rancid-smelling aldehydes by HPLC with DNPH derivatization (see method above), and sensory evaluation.

[3] = Aldehyde and ketone reaction products by HPLC with DNPH derivatization in a soap formulation; conditions: treated vs untreated soap, peak area
Protocol: The extent of rancidity in the soap formulation tested was determined by measuring the content of aldehyde and ketone reaction products of the soap oils present. DNPH derivatives of aldehydes/ketone products in soap and treated soap were synthesized as follows:
0.1000 g of a soap formulation, either treated or untreated with DiMeC10A-PhPA were separately measured and diluted to 12 mL by the addition of propan-2-ol. 1 mL of this prepared diluted mixture was added to 1 mL of diluted DNPH solution which was prepared separately by mixing DNPH (3 g/L) and 3% HCL and diluted into 12 mL by the addition of propan-2-ol. The reaction vial was stirred and kept at 40C for 1 hr to accelerate derivatization reaction. Then it was cooled to room temperature and neutralized with 20% triethylamine and centrifuged at 5000 rpm for 5 min. The sample was then injected into the HPLC column.

CN(C)CCO.CN(C)CCO.O=C(O)CCC(=O)C(=O)O [AKG DiDeanol]
POV Treated Perfume ([1]; […] (24 hours), 1.0% w/v in model perfume): 0.0 mmol/L

CCCCCCCCCCN(C)C.O=C(O)C(=O)Cc1ccccc1 [DiMeC10A-PhPA]
% of reduction in POV ([2]; 50 mins since addition): 0% | % of reduction in POV ([2]; 6 hrs since addition): 53% | % of reduction in POV ([2]; 26 hrs since addition): 62% | 2-nonenal % reduction [3]: 52.4% | decanal % reduction [3]: 55.8% | heptanal % reduction [3]: 60% | hexanal % reduction [3]: 66.7% | nonanal % reduction [3]: 79% | octanal % reduction [3]: 72.3% | retention time 22.9 % reduction [3]: 51.3% | retention time 27.7 % reduction [3]: 72.7% | retention time 29.8 % reduction [3]: 70.5% | retention time 30.6 % reduction [3]: 65.5% | retention time 31.05 % reduction [3]: 68.1% | retention time […] reduction [3]: 63.3%

CCC(CC)(C(=O)[O-])C(=O)C(=O)O.[Na+] [Diethyloxaloacetate, Sodium Salt]
% POV Reduction ([1]; 165 Minutes after addition of treating compound): 36.9% | % POV Reduction ([1]; 24 hours after addition of treating compound): 92.7%
